In US12194071B2, “Methods and compositions with purified Bombyx mori cocoon silk peptide fiber and refined Buglossoides arvensis seed oil providing anti-inflammatory effects and neuroprotection for disease states” (Brain Health Holding LLC, priority 2019, dated 2025):

How the values were obtained:
TNF-α = assay: LPS-induced TNF-α production in RAW264.7 cells (ELISA); type: cell-based, mouse; conditions: for reduction in LPS-induced TNF-α production: study challenging RAW264.7 cells in 3 batches; for reduction in LPS-induced TNF-α production, RAW264.7 cells: omega-3/omega-6 study with DHA EE, EPA EE, SDA EE (toxic amount of SDA EE)
Protocol: RAW264.7 cells were seeded in 96 well plates at a density of 20,000 cells/well. On day 2, the cells were serum starved for 24 h in DMEM. Then, the cells were pre-treated with 60 μg/ml of Peptylin® alone or in combination with 50 μM or 100 μM NeurXcel® EE diluted in DMEM. Appropriate vehicle controls have been included, i.e. 0.5% EtOH+1.2% H2O. On day 4 the cells were LPS-induced (500 ng/ml) for 1.5 h and the supernatants were collected. A WST-8 assay was performed to measure cell viability and the supernatants were used for an ELISA assay to measure TNF-α levels. All the experiments were carried out with 9 replicates (for control and LPS treated cells) or 24 replicates (for cells treated with NX and/or PT). A t-test was used to compare the media of TNF-α levels between the treatment of NX alone and in combination with PT.
3.4 Experimental procedure RAW264.7 cells were seeded in 96-well plates at a density of 20,000 cells/well in DMEM+10% FBS. The next day, the cells were washed once with DPBS and serum starved for 24 h in 150 μL of DMEM. Then, the cells were treated with 150 μL of 60 μg/ml of Peptylin® and 100 or 50 μM NeurXcel® EE that were used either alone or in combination. Appropriate vehicle controls were also included in the assay, i.e. 0.5% ethanol+1.2% H2O. After 24 h, the cells were incubated for 1.5 h with 10 μL of LPS (7500 ng/ml) to reach a final concentration of 500 ng/ml. After the incubation, the supernatants were collected and a WST-8 assay was carried out. CCK-8 reagent (WST-8) was diluted 1:10 in DMEM media and 100 μL were added to each well and the plate was incubated at 37° C. After 15 minutes the absorbance was measured at 450 nm using the Synergy II microplate reader. WST-8 is bioreduced by cellular dehydrogenases to an orange formazan product that is soluble in tissue culture medium. The amount of formazan produced is directly proportional to the number of living cells. The ELISA assay was performed following the manufacturer's instructions. The TNF-α levels produced under each condition were normalized to the corresponding vehicle control (with or without EtOH). All the experiments were carried out with 9 replicates (for control and LPS treated cells) or 24 replicates (for cells treated with NX and/or PT). […] Using Microsoft Excel the following formula was used to calculate the p-value: =T.TEST (array1, array2, tails, type), where array1 corresponds to the TNF-α values for one treatment, array2 corresponds to TNF-α values for the co-treatment, one-tail test has been considered and type is 2 (two sample equal variance t-test). A p-value of 0.05 was used as the cutoff for significance.
After the treatments, the supernatants were collected and an ELISA assay was performed. First, the standard curve was generated (FIG. 43).
The TNF-α standard was measured in 8 serial 1:2 dilutions ranging from 0-4000 pg/ml. TNF-α production was measured by ELISA. Control: cells maintained in DMEM; LPS: LPS-induced cells in DMEM+0.5% EtOH+1.2% H2O; PT: cells pre-treated with 60 μg/ml of Peptylin® for 24 h; 50 NX and 100 NX: cells treated with 50 or 100 μM NX for 24 h; 50NX+PT and 100NX+PT: cells pre-treated with 50 or 100 μM NX and 60 μg/ml PT for 24 h. Then the cells were induced with 500 ng/ml LPS for 1.5 h. The data represent the mean±SD of an experiment performed in nine replicates (for Cntr and LPS) or 24 replicates (for PT and NX treatments). NS: non-significant; *** p<0.001.

TNF-alpha = assay: LPS-induced TNF-alpha production in BV-2 cells; type: cell-based; conditions: compared with LPS controls
[1] = tested on: Reactive Oxygen Species (ROS) within SH-SY5Y neuroblastoma cells; assay: H2O2-induced Reactive Oxygen Species generation in SH-SY5Y cells (DCF-DA); type: cell-based, human; conditions: Example 12
Protocol: Reactive Oxygen Species (ROS) within cells can be quantified by indexing using the fluorescent probe 2′,7′-dichlorofluroescin diacetate (DCF-DA) (Sigma-Aldrich, USA). When oxidized to the reactive oxygen metabolite, the DCF-DA can be excited at 485 nm and releases fluorescence at 530 nm.
SH-SY5Y neuroblastoma cells were incubated with 100 μl of 10% 1-BS/MEM in a 5×10^4 cells/well 96-well plate and cultured 24 hours, as in Example 1. The 10% FBS/MEM was removed and 1% FBS/MEM added to the cells. Composition A, B, C, D, or E was administered, and then DCF-DA in keeping with the DCF-DA assay described above.
After 4 hours, a 0.25 uM solution of H2O2 (a toxicity-inducing substance) was administered. Incubation time was for 2 hours before fluorescence test. Subsequently, fluorescence was measured at 530 nm to assess the level of active oxygen production.
In Examples 8 and 9, SH-SY5Y cells were exposed in separate, parallel models to H2O2 and FeSO4 to induce controlled cell death, but instead of analyzing cell viability in the presence of various active compounds, reactive oxygen species (ROS) generation was measured in the presence of various formulations, following peer-reviewed published methods. […]
Reactive oxygen species generation induced by H2O2 was measured by incubation with a fluorescent probe 2′,7′-dichlorofluorescin diacetate (DCF-DA). […]

| Structure (SMILES) | reduction in LPS-induced TNF-α production (TNF-α) | reduction in LPS-induced TNF-α production, RAW264.7 cells (TNF-α) | further results |
| --- | --- | --- | --- |
| CCCCC/C=C\C/C=C\C/C=C\CCCCCCC(=O)OCC [DGLA EE] | 11-18% |  |  |
| CC/C=C\C/C=C\C/C=C\C/C=C\C/C=C\C/C=C\CCC(=O)OCC [DHA EE] |  | 21-42% |  |
| CC/C=C\C/C=C\C/C=C\C/C=C\C/C=C\CCCC(=O)OCC [EPA EE, eicosapentaenoic acid, ethyl ester] |  | 32% | reduction in LPS-induced TNF-alpha production, BV-2 cells (TNF-alpha; another study): 18%; reduction in LPS-induced TNF-alpha production, BV-2 cells (TNF-alpha; study in which EPA EE gave 25%): 25%; reduction in LPS-induced TNF-alpha production, BV-2 cells (TNF-alpha; third study): 27-33% |
| CC(=O)N[C@@H](CS)C(=O)O [NAC, N-Acetyl-L-cysteine] |  |  | restoration of SH-SY5Y cells (positive control group) [1]: restored to normal levels |
| CC/C=C\C/C=C\C/C=C\C/C=C\CCCCC(=O)OCC [SDA EE] | 16-24% | 35-71% |  |
